SMILES strings stand for the structures.

The target in assay [1] is T1, Prostaglandin E synthase (Homo sapiens, UniProt O14684).
T1 sequence (O14684 whole entry): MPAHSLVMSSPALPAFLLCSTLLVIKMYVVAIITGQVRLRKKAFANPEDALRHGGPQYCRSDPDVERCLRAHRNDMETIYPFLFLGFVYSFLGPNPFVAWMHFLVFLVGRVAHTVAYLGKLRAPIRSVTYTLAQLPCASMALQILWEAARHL
Kind of assay: Inhibition of mPGES1 in human A549 cell microsomal membrane using pGH2 as substrate pretreated for 15 mins followed by substrate addition and measured after 1 min by RP-HPLC method.

The target of assay [2] is T2, Prostaglandin E synthase (Homo sapiens) (UniProt O14684).
T2 sequence (whole entry): T1 sequence (O14684 whole entry)
Nature of the assay: Inhibition of mPGES1 in human HeLa cells assessed as reduction in PGE2 production at 50 uM by enzyme immunoassay relative to control. It counts as cell-based.

Assay [3] concerns the target Prostaglandin G/H synthase 2 (Homo sapiens) (UniProt P35354). Kind of assay: Inhibition of COX2 in human Hs294 cells assessed as reduction in PGE2 production up to 20 uM by immunoblot analysis relative to control.
Assay [4] has the same target. Kind of assay: Inhibition of COX2 in human A375 cells assessed as reduction in PGE2 production up to 20 uM by immunoblot analysis relative to control. On the technique in general: Immunoblotting shows a protein as a band on a membrane.
The subject of assay [5] is J774. Nature of the assay: Inhibition of LPS-induced mPGES1 mRNA expression in mouse J774 cells at 100 uM measured after 6 to 24 hrs by qRT-PCR analysis. Format: functional. For orientation: In qPCR the cycle at which signal appears reflects the starting amount.
The target of assay [6] is T1, Prostaglandin E synthase. Kind of assay: Inhibition of mPGES1 in human A549 cell microsomes.
Assay [7] concerns Rattus norvegicus. Kind of assay: Antiinflammatory activity against carrageenan-induced pleurisy in rat assessed as reduction in PGE2 level at 3.6 mg/kg, ip relative to control. Format: functional. Set-up: scale not given: the % may be the effect or the level left.
The subject of assay [8] is Rattus norvegicus. Nature of the assay: Antiinflammatory activity against carrageenan-induced pleurisy in rat assessed as reduction in exudate formation at 3.6 mg/kg, ip relative to control. Format: functional. Set-up: scale not given: the % may be the effect or the level left.
Assay [9] concerns Rattus norvegicus. Kind of assay: Antiinflammatory activity against carrageenan-induced pleurisy in rat assessed as reduction in cell infiltration at 3.6 mg/kg, ip relative to control. It counts as functional. Further details: scale not given: the % may be the effect or the level left.
Assay [10] deals with J774. Kind of assay: Inhibition of LPS-stimulated mPGES1 expression in mouse J774 cells. It counts as functional, cell-based.

Chain of Prostaglandin G/H synthase 2 (Homo sapiens) (P35354 whole entry, looked up): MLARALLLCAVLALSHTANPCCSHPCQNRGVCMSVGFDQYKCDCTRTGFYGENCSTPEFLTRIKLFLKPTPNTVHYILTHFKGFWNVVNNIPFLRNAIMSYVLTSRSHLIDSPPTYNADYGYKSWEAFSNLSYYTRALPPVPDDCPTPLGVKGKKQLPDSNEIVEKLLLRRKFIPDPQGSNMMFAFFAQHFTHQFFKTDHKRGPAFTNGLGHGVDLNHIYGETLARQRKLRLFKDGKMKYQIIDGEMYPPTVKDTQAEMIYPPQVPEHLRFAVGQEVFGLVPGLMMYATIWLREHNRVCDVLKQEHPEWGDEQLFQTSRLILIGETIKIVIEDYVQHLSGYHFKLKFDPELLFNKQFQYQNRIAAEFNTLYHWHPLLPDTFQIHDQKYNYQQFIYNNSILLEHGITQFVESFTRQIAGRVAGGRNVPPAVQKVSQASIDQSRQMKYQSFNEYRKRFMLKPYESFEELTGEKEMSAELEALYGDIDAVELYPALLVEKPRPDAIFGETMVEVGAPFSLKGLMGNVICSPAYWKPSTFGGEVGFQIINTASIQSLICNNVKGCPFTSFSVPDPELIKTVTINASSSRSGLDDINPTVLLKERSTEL

A word on the IC50: it is the concentration at which inhibition is half-maximal. As for `CCCCCc1cc(OC(=O)c2c(O)cc(OC)cc2CCCCC)cc(O)c1C(=O)O`, the IC50 on Prostaglandin E synthase [1] turned out to be 0.43 µM. On the same count and under the same terms, as for `C[C@H]1[C@H](C)CC[C@]2(C)CC[C@]3(C)C(=CC(=O)[C@@H]4[C@@]5(C)CC[C@@H](O)[C@](C)(C(=O)O)[C@@H]5CC[C@]43C)[C@H]12` [11-KETO BOSWELLIC ACID], the figure is 10 µM. What is called inhibition is the share of the control response that was lost under treatment. With `COc1ccc2cc3[n+](cc2c1OC)CCc1cc2c(cc1-3)OCO2`, the inhibition in [2] was 71.9%; in [3] it was 16 to 63%; in assay [4] it was 15 to 75%. `CC(=O)O[C@@H]1CC[C@@]2(C)[C@@H](CC[C@]3(C)[C@@H]2CC=C2[C@@H]4[C@@H](C)[C@H](C)CC[C@]4(C)CC[C@]23C)[C@@]1(C)C(=O)O`: the IC50 on Prostaglandin E synthase [1] is at least 30 µM.

In the assay on J774 [5], `O=c1c(O)c(-c2ccc(O)cc2)oc2cc(O)cc(O)c12` [KAEMPFEROL] gave an inhibition at 100 µM above 50%. On Prostaglandin E synthase [6], `CCCCCCCCCCCC1=C(O)C(=O)C=C(O)C1=O` [EMBELIN] yielded an IC50 of 0.2 µM. On to `CCc1oc(=O)c(Cc2c(O)c(CC=C(C)C)c(O)c(C(C)=O)c2O)c(O)c1C` [ARZANOL], for which the values for the Activity in the assay on Rattus norvegicus [7], in the assay on Rattus norvegicus [8] and in the assay on Rattus norvegicus [9] were 47%, 59% and 48%, respectively. Turning to `O=C(O[C@@H]1Cc2c(O)cc(O)cc2O[C@@H]1c1cc(O)c(O)c(O)c1)c1cc(O)c(O)c(O)c1` [EPIGALOCATECHIN GALLATE], the concentration for half-maximal inhibition (IC50) at Prostaglandin E synthase [1] stood at 1.8 µM.

As to `C=C(C)[C@H](CC=C(C)C)C[C@]12C[C@H](CC=C(C)C)C(C)(C)[C@](CC=C(C)C)(C(=O)C(C(=O)c3ccc(O)c(O)c3)=C1O)C2=O`, the IC50 at Prostaglandin E synthase [1] is 0.3 µM. As for `COc1cc(/C=C/C(=O)CC(=O)/C=C/c2ccc(O)c(OC)c2)ccc1O` [CURCUMIN], on Prostaglandin E synthase [1], the IC50 turned out to be 0.3 µM. For the compound `COc1cc(-c2oc3cc(O)cc(O)c3c(=O)c2O)ccc1O` [ISORHAMNETIN], in the assay with J774 [5], the inhibition at 100 µM is above 50%. For `COc1cc(C[C@@H]2COC(=O)[C@]2(O)Cc2ccc(O)c(OC)c2)ccc1O`, in the assay on J774 [10], the 50% inhibitory concentration (IC50) was determined as 14 µM.

Consider `CCCCCC(=O)Cc1cc(O)cc(O)c1C(=O)Oc1cc(O)c(C(=O)O)c(CCCCC)c1`, for which, on Prostaglandin E synthase [1], the IC50 is 0.4 µM. On to `COC(=O)c1c(C)cc(OC(=O)c2c(C)cc(O)c(C=O)c2O)c(C)c1O` [ATRANORIN], for which the concentration for half-maximal inhibition (IC50) on Prostaglandin E synthase [1] came out at 1.15 µM.

These data come from ChEMBL document CHEMBL4152187, “Plant-derived mPGES-1 inhibitors or suppressors: A new emerging trend in the search for small molecules to combat inflammation” (Eur J Med Chem, 2018).
